Assay results taken from patent publication US12285407B2, “Bis-indolylmethane derivatives and uses thereof” (The University of The West Indies, priority 2018, dated 2025).
Like-named read-outs stand apart in the source and are kept apart here.

How the values were obtained:
Escherichia coli [1] = assay: Checkerboard synergy (FICI) of antibiotics with SP-BIM; design: MIC SP-BIM 13 only / MIC in combination: Antibiotic: unit not given beside the values; conditions: for MIC: 24 h
Klebsiella pneumoniae [2] = assay: as above; assay type: cell-based; conditions: for MIC: 24 h, antibiotic alone, read-out: MIC antibiotic only
Staphylococcus aureus = assay: as above; assay type: cell-based; conditions: Staphylococcus aureus, Staphylococcus aureus; for MIC: 24 h, antibiotic alone, read-out: MIC antibiotic only
Streptococcus pneumoniae [3] = assay: as above; assay type: cell-based; conditions: Streptococcus pneumonia (title: Streptococcus pyogenes)
Escherichia coli O157:H7 = assay type: cell-based; conditions: antibiotic alone, no SP-BIM
MRSA = assay: Adjuvant broth microdilution (antibiotic MIC with SP-BIM at 50 μg/mL); assay type: cell-based, Staphylococcus aureus; conditions: antibiotic alone
Escherichia coli [4] = assay: microbe, parasite or virus in culture; assay type: cell-based; conditions: antibiotic alone, Table 6, read-out: MIC of antibiotic, No compound
Bacillus cereus [5] = assay: Adjuvant broth microdilution (antibiotic MIC with SP-BIM at 50 μg/mL); assay type: cell-based; conditions: antibiotic alone, Table 9
Candida albicans = assay: Checkerboard synergy (FICI) of antibiotics with SP-BIM; design: MIC SP-BIM 13 only / MIC in combination: Antibiotic / MIC antibiotic only: unit not given beside the values
Enterococcus faecalis = assay: Adjuvant broth microdilution (antibiotic MIC with SP-BIM at 50 μg/mL); assay type: cell-based; conditions: antibiotic alone
Streptococcus pneumoniae [6] = assay: as above; assay type: cell-based; conditions: Streptococcus pneumoniae; Streptococcus pneumonia; antibiotic alone; Table 5; read-out: MIC of antibiotic, No compound
Bacillus cereus [7] = assay: Checkerboard synergy (FICI) of antibiotics with SP-BIM; assay type: cell-based; conditions: for MIC: 24 h, antibiotic alone, read-out: MIC antibiotic only
Klebsiella pneumoniae [8] = assay: Adjuvant broth microdilution (antibiotic MIC with SP-BIM at 50 μg/mL); assay type: cell-based; conditions: antibiotic alone
[9] = MIC of the antibiotic in combination with SP-BIM 13
[10] = SP-BIM 9 in combination with the labelled antibiotic
[11] = SP-BIM 13 in combination with the labelled antibiotic
[12] = antibiotic in combination with SP-BIM 9
[13] = antibiotic in combination with SP-BIM 13

CC[C@H]1OC(=O)[C@H](C)[C@@H](O[C@H]2C[C@@](C)(OC)[C@@H](O)[C@H](C)O2)[C@H](C)[C@@H](O[C@@H]2O[C@H](C)C[C@H](N(C)C)[C@H]2O)[C@](C)(O)C[C@@H](C)C(=O)[C@H](C)[C@@H](O)[C@]1(C)O [Erythromycin, erythromycin]
MIC (Escherichia coli [1]; read-out: MIC antibiotic only, Escherichia coli, antibiotic alone): 16 µg/mL | MIC (Escherichia coli [1]; read-out: MIC antibiotic only, Escherichia coli, antibiotic alone, SP-BIM 9 checkerboard): 250 µg/mL | MIC in combination: Antibiotic (Escherichia coli [1]; [9]): 16 | FIC of SP-BIM 9 (Escherichia coli [1]; [10]): 1 | FIC of SP-BIM 13 (Escherichia coli [1]; [11]): 1.0 | Interpretation (Escherichia coli [1]; antibiotic + SP-BIM 9): Indifferent (Indifferent: FICI>1.0-4.0) | Σ FIC (Escherichia coli [1]; antibiotic + SP-BIM 9): <2.0 | Interpretation (Escherichia coli [1]; antibiotic + SP-BIM 13): Indifferent (Indifferent: FICI>1.0-4.0) | Σ FIC (Escherichia coli [1]; antibiotic + SP-BIM 13): <2.0 | MIC in combination, Antibiotic (Escherichia coli [1]; [12]): 250 µg/mL | FIC of antibiotic (Escherichia coli [1]; combination with SP-BIM 13): 1.0 | FIC of antibiotic (Escherichia coli [1]; in combination with SP-BIM 9): 1 | MIC (Klebsiella pneumoniae [2]; SP-BIM 9 checkerboard): 250 µg/mL | MIC (Klebsiella pneumoniae [2]; SP-BIM 13 checkerboard): 16 µg/mL | FIC of SP-BIM 9 (Klebsiella pneumoniae [2]; [10]): 0.5 | FIC of SP-BIM 13 (Klebsiella pneumoniae [2]; [11]): 1.0 | Interpretation (Klebsiella pneumoniae [2]; antibiotic + SP-BIM 9): Additive (Additive: FICI>0.5-1.0) | Σ FIC (Klebsiella pneumoniae [2]; antibiotic + SP-BIM 9): <0.8 | Interpretation (Klebsiella pneumoniae [2]; antibiotic + SP-BIM 13): Indifferent (Indifferent: FICI>1.0-4.0) | Σ FIC (Klebsiella pneumoniae [2]; antibiotic + SP-BIM 13): <2.0 | MIC in combination, Antibiotic (Klebsiella pneumoniae [2]; [12]): 63 µg/mL | MIC in combination, Antibiotic (Klebsiella pneumoniae [2]; [13]): 16 µg/mL | FIC of antibiotic (Klebsiella pneumoniae [2]; in combination with SP-BIM 9): 0.252 | FIC of antibiotic (Klebsiella pneumoniae [2]; in combination with SP-BIM 13): 1.0 | MIC (Staphylococcus aureus; SP-BIM 9 checkerboard): 0.1 µg/mL | MIC (Staphylococcus aureus; SP-BIM 13 checkerboard): 0.1 µg/mL | FIC of SP-BIM 9 (Staphylococcus aureus; [10]): 0.50 | FIC of SP-BIM 13 (Staphylococcus aureus; [11]): 0.5 | Interpretation (Staphylococcus aureus; antibiotic + SP-BIM 9): Additive (Additive: FICI>0.5-1.0) | Σ FIC (Staphylococcus aureus; antibiotic + SP-BIM 9): <0.70 | Interpretation (Staphylococcus aureus; antibiotic + SP-BIM 13): Additive (Additive: FICI>0.5-1.0) | Σ FIC (Staphylococcus aureus; antibiotic + SP-BIM 13): 0.7 | MIC in combination, Antibiotic (Staphylococcus aureus; [12]): 0.05 µg/mL | MIC in combination, Antibiotic (Staphylococcus aureus; [13]): 0.02 µg/mL | FIC of antibiotic (Staphylococcus aureus; in combination with SP-BIM 9): 0.20 | FIC of antibiotic (Staphylococcus aureus; in combination with SP-BIM 13): 0.2 | FIC of SP-BIM 9 (Streptococcus pneumoniae [3]; [10]): 1.00 | Interpretation (Streptococcus pneumoniae [3]; antibiotic + SP-BIM 9): Indifference | Σ FIC (Streptococcus pneumoniae [3]; antibiotic + SP-BIM 9): <2.00 | MIC in combination, Antibiotic (Streptococcus pneumoniae [3]; [12]): >250 µg/mL | FIC of antibiotic (Streptococcus pneumoniae [3]; in combination with SP-BIM 9): 1.00 | MIC (Streptococcus pneumoniae [3]; Streptococcus pneumoniae, 24 h, antibiotic alone, SP-BIM 9 checkerboard, read-out: MIC antibiotic only): > 250 µg/mL | MIC of antibiotic, No Compound (Escherichia coli O157:H7): 250 µg/mL | MIC (MRSA; Staphylococcus aureus, Table 4, read-out: MIC of antibiotic, No compound): 4 µg/mL | MIC of antibiotic, No Compound (MRSA; Table 8 (series SP-BIMs 21-29)): 8 µg/mL | MIC (Escherichia coli [4]): > 250 µg/mL | MIC of antibiotic, No Compound (Bacillus cereus [5]): 4 µg/mL | MIC (Candida albicans; 24 h, read-out: MIC antibiotic only): 16 µg/mL | MIC in combination: Antibiotic (Candida albicans; [9]): 1 | FIC of SP-BIM 13 (Candida albicans; [11]): 1.0 | Interpretation (Candida albicans; antibiotic + SP-BIM 13): Indifferent (Indifferent: FICI>1.0-4.0) | Σ FIC (Candida albicans; antibiotic + SP-BIM 13): <1.1 | FIC of antibiotic (Candida albicans; combination with SP-BIM 13): 0.1 | MIC of antibiotic, No Compound (Enterococcus faecalis): 250 µg/mL | MIC (Streptococcus pneumoniae [6]): 4 µg/mL | MIC (Bacillus cereus [7]; SP-BIM 9 checkerboard): 16 µg/mL | MIC (Bacillus cereus [7]; SP-BIM 13 checkerboard): 16 µg/mL | MIC in combination, SP-BIM 9 (Bacillus cereus [7]; SP-BIM 9 concentration in combination with the labelled antibiotic): >250 µg/mL | FIC of SP-BIM 9 (Bacillus cereus [7]; [10]): 1 | FIC of SP-BIM 13 (Bacillus cereus [7]; [11]): 0.5 | Interpretation (Bacillus cereus [7]; antibiotic + SP-BIM 9): Indifferent (Indifferent: FICI>1.0-4.0) | Σ FIC (Bacillus cereus [7]; antibiotic + SP-BIM 9): <2.0 | Interpretation (Bacillus cereus [7]; antibiotic + SP-BIM 13): Synergy (Synergy: FICI≤0.5) | Σ FIC (Bacillus cereus [7]; antibiotic + SP-BIM 13): 0.5 | MIC in combination, Antibiotic (Bacillus cereus [7]; [12]): 16 µg/mL | MIC in combination, Antibiotic (Bacillus cereus [7]; [13]): 0.05 µg/mL | FIC of antibiotic (Bacillus cereus [7]; in combination with SP-BIM 9): 1 | FIC of antibiotic (Bacillus cereus [7]; in combination with SP-BIM 13): 0.01 | MIC of antibiotic, No Compound (Klebsiella pneumoniae [8]; Klebsiella pneumonia, no SP-BIM): >250 µg/mL | MIC (Klebsiella pneumoniae [8]; Klebsiella pneumoniae, Table 7, read-out: MIC of antibiotic, No compound): 32 µg/mL
